{"source": "PubChem BioAssay AID1259407", "about": "(Chemical Carcinogenesis Research Information System (CCRIS), 2018)", "tested_on": "CCRIS mutagenicity, Ames/micronucleus/aberration tests", "assay": "CCRIS mutagenicity studies", "conditions": "Test System: AMES SALMONELLA TYPHIMURIUM, Method: PREINCUBATION", "note": "Calls of active or inactive are those of the source. The rule behind the calls is not given here."}
{"smiles": "c1ccc(Cn2ccnc2)cc1", "values": [{"measurement": "mutagenic call", "setting": "Strain/Indicator: TA98, Metabolic Activation: NONE", "value": "inactive; negative"}, {"measurement": "mutagenic call", "setting": "Strain/Indicator: TA98, Metabolic Activation: RAT, LIVER, S-9, N-BENZYLIMIDAZOLE", "value": "inactive; negative"}, {"measurement": "mutagenic call", "setting": "Strain/Indicator: TA98, Metabolic Activation: RAT, LIVER, S-9", "value": "inactive; negative"}, {"measurement": "mutagenic call", "setting": "Strain/Indicator: TA100, Metabolic Activation: NONE", "value": "inactive; negative"}, {"measurement": "mutagenic call", "setting": "Strain/Indicator: TA100, Metabolic Activation: RAT, LIVER, S-9, N-BENZYLIMIDAZOLE", "value": "active; positive"}, {"measurement": "mutagenic call", "setting": "Strain/Indicator: TA100, Metabolic Activation: RAT, LIVER, S-9", "value": "active; positive"}]}
